Test results: the NIST ThermoML archive (doi:10.1021/je200128y)
Several values for one entry are separate records, joined by “and”; a condition that tells them apart may be missing. Identical values can stand only once.

Settings: Transpiration method

c1ccc(Nc2ccccc2)cc1 [diphenylamine]
Settings	vapor or sublimation pressure
293.1 K, Crystal	4e-05 kPa
293.7 K, Crystal	4e-05 kPa
296.2 K, Crystal	6e-05 kPa
298.2 K, Crystal	7e-05 kPa
298.4 K, Crystal	8e-05 kPa
300.2 K, Crystal	0.0001 kPa
301 K, Crystal	0.00012 kPa
302.1 K, Crystal	0.00013 kPa
302.7 K, Crystal	0.00015 kPa
303.2 K, Crystal	0.00014 kPa
305.2 K, Crystal	0.00017 kPa
305.5 K, Crystal	0.0002 kPa
308 K, Crystal	0.00024 kPa and 0.00025 kPa
308.2 K, Crystal	0.00026 kPa
309.1 K, Crystal	0.00029 kPa
309.3 K, Crystal	0.0003 kPa
310.7 K, Crystal	0.00034 kPa
312.3 K, Crystal	0.00042 kPa
313 K, Crystal	0.00045 kPa
313.7 K, Crystal	0.0005 kPa
315 K, Crystal	0.00054 kPa and 0.00055 kPa
315.4 K, Crystal	0.00061 kPa
315.7 K, Crystal	0.0006 kPa
316 K, Crystal	0.00065 kPa
316.7 K, Crystal	0.0007 kPa
317.2 K, Crystal	0.00075 kPa
318 K, Crystal	0.00083 kPa
318.2 K, Crystal	0.00086 kPa
318.3 K, Crystal	0.00085 kPa
318.7 K, Crystal	0.00085 kPa
320.3 K, Crystal	0.00111 kPa
320.7 K, Crystal	0.0011 kPa
322.3 K, Crystal	0.00138 kPa
323.2 K, Crystal	0.00153 kPa and 0.00143 kPa
324.1 K, Crystal	0.00169 kPa
324.7 K, Crystal	0.00164 kPa
325.2 K, Crystal	0.00186 kPa
326.7 K, Crystal	0.00203 kPa
328.3 K, Liquid	0.00245 kPa
332.2 K, Liquid	0.00343 kPa
335.4 K, Liquid	0.00438 kPa
338.1 K, Liquid	0.00522 kPa
341.2 K, Liquid	0.00684 kPa
343.2 K, Liquid	0.0081 kPa
346.1 K, Liquid	0.00963 kPa
348.2 K, Liquid	0.01174 kPa
353.1 K, Liquid	0.01698 kPa
357.2 K, Liquid	0.02181 kPa
358.2 K, Liquid	0.02355 kPa
360.2 K, Liquid	0.02829 kPa
363 K, Liquid	0.0322 kPa
363.1 K, Liquid	0.03321 kPa
366.1 K, Liquid	0.04193 kPa
368.1 K, Liquid	0.04848 kPa
368.3 K, Liquid	0.04791 kPa
371.9 K, Liquid	0.06108 kPa
373.1 K, Liquid	0.06621 kPa
